{
  "source": "patent US20050090505A1",
  "about": "“Methods of reducing risk of infection from pathogens” (priority 2003, published 2005)",
  "target": "T1, airway epithelial sodium currents (sodium channel) (UniProt A0A8I3MKE6+A0A8I3Q679+Q95165)",
  "T1 sequence (A0A8I3MKE6 1-646)": "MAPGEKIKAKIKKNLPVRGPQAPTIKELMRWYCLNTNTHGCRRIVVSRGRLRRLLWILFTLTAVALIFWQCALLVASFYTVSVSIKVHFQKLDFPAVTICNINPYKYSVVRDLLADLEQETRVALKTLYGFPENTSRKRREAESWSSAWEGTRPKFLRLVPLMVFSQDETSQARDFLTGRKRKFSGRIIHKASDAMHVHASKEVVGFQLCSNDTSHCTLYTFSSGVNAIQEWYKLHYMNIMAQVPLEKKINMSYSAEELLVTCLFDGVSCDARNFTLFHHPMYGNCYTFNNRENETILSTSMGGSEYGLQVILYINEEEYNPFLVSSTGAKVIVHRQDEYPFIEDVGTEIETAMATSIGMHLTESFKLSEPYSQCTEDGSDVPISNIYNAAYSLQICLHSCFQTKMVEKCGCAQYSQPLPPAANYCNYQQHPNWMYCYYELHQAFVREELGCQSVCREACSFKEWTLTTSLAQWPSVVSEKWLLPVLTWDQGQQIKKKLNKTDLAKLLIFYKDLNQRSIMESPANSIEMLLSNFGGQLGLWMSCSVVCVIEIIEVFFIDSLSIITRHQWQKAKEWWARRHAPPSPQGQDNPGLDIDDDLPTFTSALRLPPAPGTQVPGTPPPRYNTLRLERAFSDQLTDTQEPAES",
  "T1 sequence (A0A8I3Q679 1-649)": "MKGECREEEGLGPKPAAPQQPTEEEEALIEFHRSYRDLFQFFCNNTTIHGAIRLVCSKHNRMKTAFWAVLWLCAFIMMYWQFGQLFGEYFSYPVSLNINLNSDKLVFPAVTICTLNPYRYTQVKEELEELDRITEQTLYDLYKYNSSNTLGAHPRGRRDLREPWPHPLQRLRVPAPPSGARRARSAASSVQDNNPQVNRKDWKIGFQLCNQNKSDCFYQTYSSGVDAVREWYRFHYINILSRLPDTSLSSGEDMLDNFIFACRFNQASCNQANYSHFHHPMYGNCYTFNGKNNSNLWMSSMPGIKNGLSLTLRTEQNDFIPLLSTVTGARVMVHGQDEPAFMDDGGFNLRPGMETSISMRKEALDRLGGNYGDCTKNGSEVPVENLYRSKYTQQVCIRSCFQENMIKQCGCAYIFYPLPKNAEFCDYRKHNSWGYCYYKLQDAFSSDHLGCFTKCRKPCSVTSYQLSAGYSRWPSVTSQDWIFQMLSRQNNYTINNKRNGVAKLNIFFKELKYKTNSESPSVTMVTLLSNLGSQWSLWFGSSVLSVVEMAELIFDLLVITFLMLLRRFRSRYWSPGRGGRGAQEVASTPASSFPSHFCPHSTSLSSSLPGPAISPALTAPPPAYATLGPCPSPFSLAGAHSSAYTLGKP",
  "T1 sequence (Q95165 1-641)": "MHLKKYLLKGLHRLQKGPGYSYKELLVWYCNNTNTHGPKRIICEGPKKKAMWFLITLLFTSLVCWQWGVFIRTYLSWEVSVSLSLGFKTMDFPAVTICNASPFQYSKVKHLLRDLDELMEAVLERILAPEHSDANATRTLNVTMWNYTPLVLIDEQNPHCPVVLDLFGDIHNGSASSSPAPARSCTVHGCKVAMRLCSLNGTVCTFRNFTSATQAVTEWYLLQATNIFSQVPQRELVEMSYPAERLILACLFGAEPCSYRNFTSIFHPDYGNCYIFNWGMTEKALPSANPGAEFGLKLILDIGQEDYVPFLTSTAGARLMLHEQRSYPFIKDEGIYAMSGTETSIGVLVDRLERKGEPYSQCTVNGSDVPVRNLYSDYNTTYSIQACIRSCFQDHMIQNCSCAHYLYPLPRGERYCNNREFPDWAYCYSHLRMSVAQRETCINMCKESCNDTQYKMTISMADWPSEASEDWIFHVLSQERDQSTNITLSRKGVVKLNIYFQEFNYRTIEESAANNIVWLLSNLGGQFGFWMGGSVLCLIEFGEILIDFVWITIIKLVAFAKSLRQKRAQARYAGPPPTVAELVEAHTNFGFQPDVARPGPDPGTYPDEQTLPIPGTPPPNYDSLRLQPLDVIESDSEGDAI",
  "assay": "Sodium channel blocking activity: inhibition of short circuit current (ISC) in airway epithelial monolayers mounted in Ussing chambers",
  "format": "cell-based, human, dog, sheep or rodent",
  "details": "for Fold Amiloride** (PSA 4022 = 100): relative potency for PSA 4022 = 100 using EC50 from PSA 4022 in same run; for EC50: mean ± spread",
  "experimental": "In Vitro Measure of Sodium Channel Blocking Activity and Reversibility\nOne assay used to assess mechanism of action and/or potency of the compounds of the present invention involves the determination of lumenal drug inhibition of airway epithelial sodium currents measured under short circuit current (ISC) using airway epithelial monolayers mounted in Ussing chambers. Cells obtained from freshly excised human, dog, sheep or rodent airways are seeded onto porous 0.4 micron Snapwell™ Inserts (CoStar), cultured at air-liquid interface (ALI) conditions in hormonally defined media, and assayed for sodium transport activity (ISC) while bathed in Krebs Bicarbonate Ringer (KBR) in Using chambers. All test drug additions are to the lumenal bath with half-log dose addition protocols (from 1×10^−11 M to 3×10^−5 M), and the cumulative change in ISC (inhibition) recorded. All drugs are prepared in dimethyl sulfoxide as stock solutions at a concentration of 1×10^−2 M and stored at −20° C. Eight preparations are typically run in parallel; two preparations per run incorporate amiloride and/or benzamil as positive controls. After the maximal concentration (5×10^−5 M) is administered, the lumenal bath is exchanged three times with fresh drug-free KBR solution, and the resultant ISC measured after each wash for approximately 5 minutes in duration. Reversibility is defined as the percent return to the baseline value for sodium current after the third wash. All data from the voltage clamps are collected via a computer interface and analyzed off-line.\nDose-effect relationships for all compounds are considered and analyzed by the Prism 3.0 program. IC50 values, maximal effective concentrations, and reversibility are calculated and compared to amiloride and benzamil as positive controls.",
  "key": {"[1]": {"details": "Selected Alaphatic Pyrazinoylguanidines (Formula II)"}, "[2]": {"details": "Selected Cyclic Pyrazinoylguanidines (Formula III), read-out: EC50"}},
  "note": "Structures can show the parent of a compound that is named as a salt. Where two headings read alike, the source gives them in different places.",
  "data": [
    {"smiles": "N=C(NCCCCCCCCCCCN)NC(=O)c1nc(Cl)c(N)nc1N", "note": "[compound 23682, N-(11-aminoundecyl)-N′-(3,5-diamino-6-chloropyrazine-2-carbonyl)guanidine dihydrochloride]", "values": [
      {"measurement": "Fold Amiloride** (PSA 4022 = 100)", "setting": "Alaphatic Pyrazinoylguanidines", "result": "51 ± 15"},
      {"measurement": "EC50", "setting": "[1]", "result": "12 ± 3", "unit": "nM"}
    ]},
    {"smiles": "N=C(N)NCCCCCCCCCNC(=N)NC(=O)c1nc(Cl)c(N)nc1N", "note": "[compound 19006, N-{9-[N′-(3,5-diamino-6-chloropyrazine-2-carbonyl)guanidino]nonyl}guanidine dihydrochloride]", "values": [
      {"measurement": "Fold Amiloride** (PSA 4022 = 100)", "setting": "Alaphatic Pyrazinoylguanidines", "result": "11 ± 2"},
      {"measurement": "EC50", "setting": "[1]", "result": "60 ± 15", "unit": "nM"}
    ]},
    {"smiles": "Cl.Cl.Cl.N=C(N)NCCCN1CCC(CCCCNC(=N)NC(=O)c2nc(Cl)c(N)nc2N)CC1", "note": "[compound 25795, N-(3,5-Diamino-6-chloropyrazine-2-carbonyl)-N′-{4-[1-(3-guanidinopropyl)piperidin-4-yl]butyl}guanidine trihydrochloride]", "values": [
      {"measurement": "Fold Amiloride** (PSA 4022 = 100)", "setting": "Cyclic Pyrazinoylguanidines", "result": "18 ± 7"}
    ]},
    {"smiles": "N=C(N)NCCCCCCCCNC(=N)NC(=O)c1nc(Cl)c(N)nc1N", "note": "[compound 19604, N-{8-[N′-(3,5-diamino-6-chloropyrazine-2-carbonyl)guanidino]octyl}-guanidine dihydrochloride]", "values": [
      {"measurement": "Fold Amiloride** (PSA 4022 = 100)", "setting": "Alaphatic Pyrazinoylguanidines", "result": "63 ± 61"},
      {"measurement": "EC50", "setting": "[1]", "result": "25 ± 27", "unit": "nM"}
    ]},
    {"smiles": "N=C(NCCCCC1CCN(CCCN)CC1)NC(=O)c1nc(Cl)c(N)nc1N", "note": "[compound 25510, N-{4-[1-(3-Aminopropyl)piperidin-4-yl]butyl}-N′-(3,5-diamino-6-chloropyrazine-2-carbonyl)guanidine trihydrochloride]", "values": [
      {"measurement": "Fold Amiloride** (PSA 4022 = 100)", "setting": "Cyclic Pyrazinoylguanidines", "result": "3 ± 9"},
      {"measurement": "EC50", "setting": "Selected Cyclic Pyrazinoylguanidines (Formula III)", "result": "61 ± 23", "unit": "nM"}
    ]},
    {"smiles": "N=C(N)NCCCCCCCCCCCCNC(=N)NC(=O)c1nc(Cl)c(N)nc1N", "note": "[compound 23683, N-{12-[N′-(3,5-diamino-6-chloropyrazine-2-carbonyl)guanidino]dodecyl)guanidine dihydrochloride]", "values": [
      {"measurement": "Fold Amiloride** (PSA 4022 = 100)", "setting": "Alaphatic Pyrazinoylguanidines", "result": "68 ± 48"},
      {"measurement": "EC50", "setting": "[1]", "result": "41 ± 68", "unit": "nM"}
    ]},
    {"smiles": "N=C(NCCCCc1ccc(OCC(=O)NCC(N)=O)cc1)NC(=O)c1nc(Cl)c(N)nc1N", "note": "[compound 16314, N-carbamoylmethyl-2-(4-{4-[N′-(3,5-diamino-6-chloropyrazine-2-carbonyl)guanidino]butyl}phenoxy)acetamide]", "values": [
      {"measurement": "Fold Amiloride** (PSA 4022 = 100)", "setting": "Capped Pyrazinoylguanidines", "result": "41 ± 6"}
    ]},
    {"smiles": "CN(C)C(=O)COc1ccc(CCCCNC(=N)NC(=O)c2nc(Cl)c(N)nc2N)cc1", "note": "[compound 16313, 2-(4-{4-[N-(3,5-diamino-6-chloropyrazine-2-carbonyl)guanidino]-butyl}phenoxy)-N,N-dimethylacetamide hydrochloride]", "values": [
      {"measurement": "Fold Amiloride** (PSA 4022 = 100)", "setting": "Capped Pyrazinoylguanidines", "result": "41 ± 7"}
    ]},
    {"smiles": "CC(C)(C)OC(=O)NCCCN1CCC(CCCCNC(N)=NC(=O)c2nc(Cl)c(N)nc2N)CC1", "note": "[compound 25452, [3-(4-{4-[N′-(3,5-diamino-6-chloropyrazine-2-carbonyl)guanidino]butyl}piperidin-1-yl)propyl]carbamic acid tert-butyl ester]", "values": [
      {"measurement": "Fold Amiloride** (PSA 4022 = 100)", "setting": "Cyclic Pyrazinoylguanidines", "result": "8 ± 1"},
      {"measurement": "EC50", "setting": "[2]", "result": "60 ± 6", "unit": "nM"}
    ]},
    {"smiles": "N=C(NCCCCCCCCN)NC(=O)c1nc(Cl)c(N)nc1N", "note": "[compound 19336, N-(8-aminooctyl)-N′-(3,5-diamino-6-chloropyrazine-2-carbonyl)-guanidine dihydrochloride]", "values": [
      {"measurement": "Fold Amiloride** (PSA 4022 = 100)", "setting": "Alaphatic Pyrazinoylguanidines", "result": "12 ± 3"},
      {"measurement": "EC50", "setting": "[1]", "result": "76 ± 18", "unit": "nM"}
    ]},
    {"smiles": "N=C(NCCCCC1CCN(CC(O)CO)CC1)NC(=O)c1nc(Cl)c(N)nc1N", "note": "(stereo not shown) [compound 25456, N-(3,5-Diamino-6-chloropyrazine-2-carbonyl)-N′-{4-[1-(2,3-dihydroxypropyl)-piperidin-4-yl]butyl}guanidine]", "values": [
      {"measurement": "Fold Amiloride** (PSA 4022 = 100)", "setting": "Cyclic Pyrazinoylguanidines", "result": "6 ± 2"},
      {"measurement": "EC50", "setting": "[2]", "result": "106 ± 34", "unit": "nM"}
    ]},
    {"smiles": "N=C(NCCCCCCCCCN)NC(=O)c1nc(Cl)c(N)nc1N", "note": "[compound 19335, N-(9-aminononyl)-N′-(3,5-diamino-6-chloropyrazine-2-carbonyl)-guanidine dihydrochloride]", "values": [
      {"measurement": "Fold Amiloride** (PSA 4022 = 100)", "setting": "Alaphatic Pyrazinoylguanidines", "result": "19 ± 7"}
    ]},
    {"smiles": "N=C(N)NCCCCCCCCCCCNC(=N)NC(=O)c1nc(Cl)c(N)nc1N", "note": "[compound 23991, N-{11-[N′-(3,5-diamino-6-chloropyrazine-2-carbonyl)guanidino]-undecyl}guanidine dihydrochloride]", "values": [
      {"measurement": "Fold Amiloride** (PSA 4022 = 100)", "setting": "Alaphatic Pyrazinoylguanidines", "result": "20 ± 12"},
      {"measurement": "EC50", "setting": "[1]", "result": "64 ± 77", "unit": "nM"}
    ]}
  ]
}
